# In US20210100897A1, “METHODS FOR THE STIMULATION OF DENDRITIC CELL (DC) PRECURSOR POPULATION "PRE-DC" AND THEIR USES THEREOF” (AGENCY FOR SCIENCE, TECHNOLOGY AND RESEARCH, priority 2017, published 2021):
# Key:
# Type in all cases: cell-based, human
# pDC [1] = assay: Intracellular cytokine detection following stimulation with TLR ligands (PBMC, flow cytometry), pDC; details: PBMC stimulated 6 h with TLR agonist
# Description: All antibodies used for fluorescence-activated cell sorting (FACS) and flow cytometry were mouse anti-human monoclonal antibodies (mAbs), except for chicken anti-human CADM1 IgY primary mAb. Briefly, 5×10^6 cells/tube were washed and incubated with Live/Dead blue dye (Invitrogen) for 30 min at 4° C. in phosphate buffered saline (PBS) and then incubated in 5% heat-inactivated fetal calf serum (FCS) for 15 min at 4° C. (Sigma Aldrich). The appropriate antibodies diluted in PBS with 2% fetal calf serum (FCS) and 2 mM EDTA were added to the cells and incubated for 30 min at 4° C., and then washed and detected with the secondary reagents. For intra-cytoplasmic or intra-nuclear labeling or staining, cells were fixed and permeabilized with BD Cytofix/Cytoperm (BD Biosciences) or with eBioscience FoxP3/Transcription Factor Staining Buffer Set (eBioscience/Affimetrix), respectively according to the manufacturer's instructions. Flow cytometry was performed using a BD LSRII or a BD FACSFortessa (BD Biosciences) and the data analyzed using BD FACSDiva 6.0 (BD Biosciences) or FlowJo v.10 (Tree Star Inc.). For isolation of precursor dendritic cells (pre-DC), PBMC were first depleted of T cells, monocytes and B cells with anti-CD3, anti-CD14 and anti-CD20 microbeads (Miltenyi Biotec) using an AutoMACS Pro Separator (Miltenyi Biotec) according to the manufacturer's instructions. […]
# pDC [2] = assay: Luminex Drop Array assay on sorted and stimulated pDC, culture supernatants; details: TLR7/8 or TLR9 stimulation; FIG. 2G and FIG. 13
# Description: (§1) A total of 2,000 cells/well of sorted pre-DC and DC subsets were seeded in V-bottom 96 well plates and then incubated for 18 h in 50 μL complete RPMI-1640 Glutmax media (Life Technologies) supplemented with 10% FBS and 1% penicillin/streptomycin, and stimulated with either LPS, LPS+IFNγ, Flagellin, polyI:C, Imidazoquinoline or CpG oligodeoxynucleotides (ODN) 2216. Cells were then pelleted and 30 μL supernatant was collected. A Luminex® Drop Array™ was performed using 5 μL of the supernatant. Human G-CSF, GM-CSF, IFN-α2, IL-10, IL-12p40, IL-12p70, IL-15, IL-1RA, IL-1a, IL-1b, IL-6, IL-7, IL-8, MIP-1b, TNF-α, TNF-β were tested by multiplexing (EMD Millipore) with DropArray-bead plates (Curiox) according to the manufacturer's instructions. Acquisition was performed using xPONENT 4.0 (Luminex) acquisition software, and data analysis was performed using Bio-Plex Manager 6.1.1 (Bio-Rad).
# pre-DC = assay: Luminex Drop Array assay on sorted and stimulated pre-DC, culture supernatants; details: TLR7/8 or TLR9 stimulation; FIG. 2G and FIG. 13
# Description: as §1
structure (smiles),measurement,setting,value
CCOCc1nc2c([nH]1)c(N)nc1ccccc12 [CL097],IFN-α production by pDC,pDC [1],robust
same,IFNα secretion by pure pDC cultures,pDC [2],abundant secretion
same,IL-12p40 secretion by pure pDC cultures,pDC [2],but not IL-12p40
same,IL-12p40 secretion by pre-DC,pre-DC,readily secreted
